Experiments:
[1] = molecular target: 5-hydroxytryptamine receptor 2B (Homo sapiens, UniProt P41595); assay: Inhibition of Serotonin (5-Hydroxytryptamine) 5-HT2B at compound concentration of 10.0 uM in the Eurofins-Panlabs radioligand binding assay (Eurofins_assay_271700); set-up: ligand concentration 1.2 nM, non-specific ligand with concentration 10 uM Serotonin (5-HT), incubation time 60 min, incubation temperature 37 C
[2] = molecular target: Serine/threonine-protein kinase B-raf (Homo sapiens) (UniProt P15056); assay: BRAF Kinase screen; details: Compound concentration 1.0 uM
[3] = molecular target: Casein kinase I isoform epsilon (Homo sapiens) (UniProt P49674); assay: CSNK1E (CK1 epsilon) Kinase screen; details: Compound concentration 1.0 uM
[4] = molecular target: Casein kinase I isoform gamma-3 (Homo sapiens) (UniProt Q9Y6M4); assay: CSNK1G3 (CK1 gamma 3) Kinase screen; details: Compound concentration 1.0 uM
[5] = molecular target: Fibroblast growth factor receptor 2 (Homo sapiens) (UniProt P21802); assay: FGFR2 Kinase screen; details: Compound concentration 1.0 uM
[6] = molecular target: Tyrosine-protein kinase JAK2 (Homo sapiens) (UniProt O60674); assay: JAK2 Kinase screen; details: Compound concentration 1.0 uM
[7] = molecular target: Tyrosine-protein kinase JAK2 (Homo sapiens) (UniProt O60674); assay: JAK2 JH1 JH2 Kinase screen; details: Compound concentration 1.0 uM
[8] = test system: Mast/stem cell growth factor receptor Kit (Homo sapiens), P10721 [V654A]; assay: KIT V654A Kinase screen; details: Compound concentration 1.0 uM
[9] = molecular target: Mitogen-activated protein kinase 14 (Homo sapiens) (UniProt Q16539); assay: MAPK14 (p38 alpha) Direct Kinase screen; details: Compound concentration 1.0 uM
[10] = molecular target: Serine/threonine-protein kinase Nek6 (Homo sapiens) (UniProt Q9HC98); assay: NEK6 Kinase screen; details: Compound concentration 1.0 uM
[11] = molecular target: T1, Serine/threonine-protein kinase NLK (Homo sapiens) (UniProt Q9UBE8); assay: NLK Kinase screen; details: Compound concentration 1.0 uM
T1 sequence (whole entry): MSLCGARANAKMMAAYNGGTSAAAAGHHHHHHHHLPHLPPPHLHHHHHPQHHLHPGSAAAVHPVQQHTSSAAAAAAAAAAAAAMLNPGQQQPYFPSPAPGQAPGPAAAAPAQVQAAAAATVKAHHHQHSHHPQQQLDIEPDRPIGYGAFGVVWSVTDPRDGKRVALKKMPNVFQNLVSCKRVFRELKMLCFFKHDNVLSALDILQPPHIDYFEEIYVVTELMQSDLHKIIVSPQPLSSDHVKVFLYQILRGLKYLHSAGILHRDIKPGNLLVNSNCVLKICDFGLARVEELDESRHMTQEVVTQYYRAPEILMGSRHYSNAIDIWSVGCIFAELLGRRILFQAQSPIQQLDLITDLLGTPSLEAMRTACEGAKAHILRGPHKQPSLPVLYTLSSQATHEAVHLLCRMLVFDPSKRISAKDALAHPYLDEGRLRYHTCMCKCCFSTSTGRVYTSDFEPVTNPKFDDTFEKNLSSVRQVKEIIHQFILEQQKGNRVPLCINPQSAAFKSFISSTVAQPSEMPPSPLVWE

[12] = molecular target: Serine/threonine-protein kinase PAK 4 (Homo sapiens) (UniProt O96013); assay: PAK4 Kinase screen; details: Compound concentration 1.0 uM
[13] = molecular target: Serine/threonine-protein kinase PLK3 (Homo sapiens) (UniProt Q9H4B4); assay: PLK3 Kinase screen; details: Compound concentration 1.0 uM
[14] = molecular target: T2, Serine/threonine-protein kinase Sgk1 (Homo sapiens) (UniProt O00141); assay: SGK (SGK1) Kinase screen; details: Compound concentration 1.0 uM
T2 sequence (whole entry): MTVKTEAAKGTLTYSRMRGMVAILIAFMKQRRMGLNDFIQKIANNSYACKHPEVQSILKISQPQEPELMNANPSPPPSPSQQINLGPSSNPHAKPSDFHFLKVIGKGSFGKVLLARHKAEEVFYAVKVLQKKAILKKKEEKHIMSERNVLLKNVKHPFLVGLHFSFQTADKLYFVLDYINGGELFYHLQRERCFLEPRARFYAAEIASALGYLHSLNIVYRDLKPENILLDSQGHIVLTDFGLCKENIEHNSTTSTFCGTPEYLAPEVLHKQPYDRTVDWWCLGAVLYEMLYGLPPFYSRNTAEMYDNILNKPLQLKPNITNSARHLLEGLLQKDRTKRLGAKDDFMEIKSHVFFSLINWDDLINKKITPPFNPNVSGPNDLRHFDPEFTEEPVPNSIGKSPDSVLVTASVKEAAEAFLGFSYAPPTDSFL

[15] = molecular target: Serine/threonine-protein kinase 25 (Homo sapiens) (UniProt O00506); assay: STK25 (YSK1) Kinase screen; details: Compound concentration 1.0 uM
[16] = molecular target: Serine/threonine-protein kinase WNK2 (Homo sapiens) (UniProt Q9Y3S1); assay: WNK2 Kinase screen; details: Compound concentration 1.0 uM
Caspase-3 (Homo sapiens) = Caspase-3 (Homo sapiens) (UniProt P42574); assay: Peptidase, CASP3 (Caspase 3) Eurofins-Panlabs enzyme assay; details: Compound concentration 10.0 uM
Caspase-9 (Homo sapiens) = Caspase-9 (Homo sapiens) (UniProt P55211); assay: Peptidase, CASP9 (Caspase 9) Eurofins-Panlabs enzyme assay; set-up: substrate with concentration; details: Compound concentration 10.0 uM
[17] = molecular target: Histamine H1 receptor (Homo sapiens) (UniProt P35367); details: Compound concentration 10.0 uM
[18] = molecular target: Sodium-dependent serotonin transporter (Homo sapiens) (UniProt P31645); details: Compound concentration 10.0 uM
[19] = molecular target: T3, 5-hydroxytryptamine receptor 2C (Homo sapiens) (UniProt P28335); details: Compound concentration 10.0 uM
T3 sequence (whole entry): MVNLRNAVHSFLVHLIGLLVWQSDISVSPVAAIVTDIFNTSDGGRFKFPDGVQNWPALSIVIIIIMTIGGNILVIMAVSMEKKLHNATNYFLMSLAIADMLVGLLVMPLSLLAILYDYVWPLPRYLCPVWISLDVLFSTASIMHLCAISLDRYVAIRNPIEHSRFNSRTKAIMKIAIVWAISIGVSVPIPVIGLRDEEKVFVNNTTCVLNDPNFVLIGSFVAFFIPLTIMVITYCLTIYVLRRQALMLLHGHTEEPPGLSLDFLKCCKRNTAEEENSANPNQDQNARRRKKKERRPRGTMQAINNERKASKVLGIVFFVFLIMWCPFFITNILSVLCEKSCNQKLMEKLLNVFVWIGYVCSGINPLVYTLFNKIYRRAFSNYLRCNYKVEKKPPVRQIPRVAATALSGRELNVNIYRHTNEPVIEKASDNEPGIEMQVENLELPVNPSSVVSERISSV

Tyrosine-protein kinase JAK2 (Homo sapiens), sequence (O60674 whole entry): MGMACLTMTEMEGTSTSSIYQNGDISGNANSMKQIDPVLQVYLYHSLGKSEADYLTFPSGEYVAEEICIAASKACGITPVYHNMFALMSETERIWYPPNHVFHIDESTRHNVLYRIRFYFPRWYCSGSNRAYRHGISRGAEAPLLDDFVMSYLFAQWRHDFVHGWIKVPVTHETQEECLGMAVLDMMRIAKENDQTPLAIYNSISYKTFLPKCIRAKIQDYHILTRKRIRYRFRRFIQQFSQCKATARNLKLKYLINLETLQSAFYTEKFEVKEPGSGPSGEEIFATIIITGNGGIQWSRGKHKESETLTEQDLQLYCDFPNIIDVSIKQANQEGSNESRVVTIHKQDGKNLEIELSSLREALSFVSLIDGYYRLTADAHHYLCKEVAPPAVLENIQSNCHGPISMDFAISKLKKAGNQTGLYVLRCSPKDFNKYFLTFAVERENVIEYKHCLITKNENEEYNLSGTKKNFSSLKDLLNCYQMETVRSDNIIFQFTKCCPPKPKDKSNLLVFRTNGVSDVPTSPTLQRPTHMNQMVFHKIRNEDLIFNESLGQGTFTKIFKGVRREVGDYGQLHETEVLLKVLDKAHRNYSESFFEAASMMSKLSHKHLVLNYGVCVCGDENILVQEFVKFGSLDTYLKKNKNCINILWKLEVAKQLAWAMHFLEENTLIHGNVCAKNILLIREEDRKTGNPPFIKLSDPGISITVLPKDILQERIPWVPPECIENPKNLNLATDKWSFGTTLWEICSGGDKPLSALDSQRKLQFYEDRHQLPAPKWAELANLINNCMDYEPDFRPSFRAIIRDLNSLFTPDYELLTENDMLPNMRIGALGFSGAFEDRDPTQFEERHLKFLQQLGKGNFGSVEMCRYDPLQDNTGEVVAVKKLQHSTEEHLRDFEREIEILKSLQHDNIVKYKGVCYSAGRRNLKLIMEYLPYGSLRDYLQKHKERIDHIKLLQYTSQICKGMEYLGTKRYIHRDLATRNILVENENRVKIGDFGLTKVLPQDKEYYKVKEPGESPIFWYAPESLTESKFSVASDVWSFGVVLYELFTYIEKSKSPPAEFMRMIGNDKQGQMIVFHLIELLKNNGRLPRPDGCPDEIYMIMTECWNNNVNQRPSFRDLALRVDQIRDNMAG
Caspase-3 (Homo sapiens), sequence (P42574 29-175 limits assumed): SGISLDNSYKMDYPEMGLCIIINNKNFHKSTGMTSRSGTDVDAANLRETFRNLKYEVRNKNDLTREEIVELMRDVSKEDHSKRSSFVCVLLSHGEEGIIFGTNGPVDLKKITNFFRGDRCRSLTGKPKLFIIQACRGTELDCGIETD
Caspase-3 (Homo sapiens), sequence (P42574 176-277 limits assumed): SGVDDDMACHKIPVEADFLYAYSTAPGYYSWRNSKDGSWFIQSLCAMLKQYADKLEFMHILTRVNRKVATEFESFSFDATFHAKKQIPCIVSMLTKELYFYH
Mitogen-activated protein kinase 14 (Homo sapiens), sequence (Q16539 whole entry): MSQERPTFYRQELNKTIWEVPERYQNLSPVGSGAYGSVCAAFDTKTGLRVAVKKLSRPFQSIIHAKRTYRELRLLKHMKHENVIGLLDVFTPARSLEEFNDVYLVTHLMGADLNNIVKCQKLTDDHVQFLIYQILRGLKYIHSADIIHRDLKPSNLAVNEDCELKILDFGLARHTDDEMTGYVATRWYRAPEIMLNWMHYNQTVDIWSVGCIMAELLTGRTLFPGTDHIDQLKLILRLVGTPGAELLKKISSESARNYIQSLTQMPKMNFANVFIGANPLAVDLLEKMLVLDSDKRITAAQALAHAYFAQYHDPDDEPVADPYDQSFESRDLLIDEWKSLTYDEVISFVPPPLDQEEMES
5-hydroxytryptamine receptor 2B, sequence (P41595 whole entry): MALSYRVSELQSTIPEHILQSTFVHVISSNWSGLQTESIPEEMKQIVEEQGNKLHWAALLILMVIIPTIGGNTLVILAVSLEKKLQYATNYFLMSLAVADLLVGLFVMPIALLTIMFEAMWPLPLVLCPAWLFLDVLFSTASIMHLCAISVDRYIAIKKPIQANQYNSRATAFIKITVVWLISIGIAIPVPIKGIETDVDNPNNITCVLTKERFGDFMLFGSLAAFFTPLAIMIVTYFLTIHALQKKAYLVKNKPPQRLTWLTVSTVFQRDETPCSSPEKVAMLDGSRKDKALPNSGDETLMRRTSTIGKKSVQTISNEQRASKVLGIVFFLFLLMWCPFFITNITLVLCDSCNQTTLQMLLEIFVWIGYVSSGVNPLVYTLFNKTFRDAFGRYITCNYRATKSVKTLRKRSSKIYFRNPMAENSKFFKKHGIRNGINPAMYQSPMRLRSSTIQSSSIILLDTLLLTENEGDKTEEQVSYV
Serine/threonine-protein kinase PLK3 (Homo sapiens), sequence (Q9H4B4 whole entry, looked up): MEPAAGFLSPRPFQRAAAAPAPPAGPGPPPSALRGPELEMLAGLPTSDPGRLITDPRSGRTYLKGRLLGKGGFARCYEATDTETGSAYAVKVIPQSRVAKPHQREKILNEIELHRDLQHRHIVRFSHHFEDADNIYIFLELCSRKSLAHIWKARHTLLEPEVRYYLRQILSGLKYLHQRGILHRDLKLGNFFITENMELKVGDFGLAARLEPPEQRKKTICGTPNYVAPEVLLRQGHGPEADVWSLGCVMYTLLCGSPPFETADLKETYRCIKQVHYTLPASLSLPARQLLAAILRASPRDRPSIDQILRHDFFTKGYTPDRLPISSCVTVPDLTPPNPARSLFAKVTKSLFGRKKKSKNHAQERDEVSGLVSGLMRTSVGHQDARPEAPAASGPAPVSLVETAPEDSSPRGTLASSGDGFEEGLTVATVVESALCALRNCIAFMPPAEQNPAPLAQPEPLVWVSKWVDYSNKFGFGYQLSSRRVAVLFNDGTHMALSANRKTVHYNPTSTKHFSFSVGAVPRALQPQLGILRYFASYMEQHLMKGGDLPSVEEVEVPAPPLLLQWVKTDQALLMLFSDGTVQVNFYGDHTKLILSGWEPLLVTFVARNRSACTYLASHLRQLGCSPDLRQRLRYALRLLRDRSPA
Serine/threonine-protein kinase B-raf (Homo sapiens), sequence (P15056 whole entry, canonical isoform): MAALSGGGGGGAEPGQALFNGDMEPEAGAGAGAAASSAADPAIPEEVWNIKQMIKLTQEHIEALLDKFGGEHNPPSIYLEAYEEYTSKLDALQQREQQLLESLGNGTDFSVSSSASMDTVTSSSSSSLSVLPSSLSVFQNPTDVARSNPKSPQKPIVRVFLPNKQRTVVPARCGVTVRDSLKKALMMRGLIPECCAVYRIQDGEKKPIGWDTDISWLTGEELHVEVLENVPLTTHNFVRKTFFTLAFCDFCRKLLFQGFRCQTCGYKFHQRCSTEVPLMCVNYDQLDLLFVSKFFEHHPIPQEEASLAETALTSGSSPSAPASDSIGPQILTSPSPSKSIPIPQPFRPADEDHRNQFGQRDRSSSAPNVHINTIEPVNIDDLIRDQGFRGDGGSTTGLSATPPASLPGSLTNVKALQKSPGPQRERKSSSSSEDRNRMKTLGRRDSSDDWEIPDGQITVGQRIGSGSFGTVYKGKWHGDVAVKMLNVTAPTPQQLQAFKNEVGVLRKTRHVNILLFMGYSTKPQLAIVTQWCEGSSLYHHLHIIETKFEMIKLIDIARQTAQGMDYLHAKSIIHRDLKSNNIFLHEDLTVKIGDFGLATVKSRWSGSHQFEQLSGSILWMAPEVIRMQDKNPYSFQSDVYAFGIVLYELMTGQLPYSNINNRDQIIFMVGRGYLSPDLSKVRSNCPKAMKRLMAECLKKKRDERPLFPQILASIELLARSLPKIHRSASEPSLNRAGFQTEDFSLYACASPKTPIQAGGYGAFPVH
Sodium-dependent serotonin transporter (Homo sapiens), sequence (P31645 whole entry, looked up): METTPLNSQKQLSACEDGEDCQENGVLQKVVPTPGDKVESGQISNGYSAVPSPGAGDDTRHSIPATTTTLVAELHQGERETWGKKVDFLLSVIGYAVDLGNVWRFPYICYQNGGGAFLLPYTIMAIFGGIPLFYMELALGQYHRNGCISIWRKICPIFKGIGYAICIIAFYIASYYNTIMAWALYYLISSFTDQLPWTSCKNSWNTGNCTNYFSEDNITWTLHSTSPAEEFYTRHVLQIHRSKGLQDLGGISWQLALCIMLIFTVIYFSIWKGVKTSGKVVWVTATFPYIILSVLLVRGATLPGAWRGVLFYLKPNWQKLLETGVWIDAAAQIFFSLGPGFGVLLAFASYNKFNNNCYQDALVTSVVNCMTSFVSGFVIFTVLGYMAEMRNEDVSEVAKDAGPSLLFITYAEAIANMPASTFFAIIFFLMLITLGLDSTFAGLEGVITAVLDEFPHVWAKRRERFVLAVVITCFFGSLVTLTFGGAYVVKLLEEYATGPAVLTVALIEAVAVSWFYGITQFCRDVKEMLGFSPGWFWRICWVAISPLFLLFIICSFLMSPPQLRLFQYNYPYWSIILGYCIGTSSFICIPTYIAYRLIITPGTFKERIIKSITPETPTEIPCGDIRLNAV
Serine/threonine-protein kinase PAK 4 (Homo sapiens), sequence (O96013 whole entry, looked up): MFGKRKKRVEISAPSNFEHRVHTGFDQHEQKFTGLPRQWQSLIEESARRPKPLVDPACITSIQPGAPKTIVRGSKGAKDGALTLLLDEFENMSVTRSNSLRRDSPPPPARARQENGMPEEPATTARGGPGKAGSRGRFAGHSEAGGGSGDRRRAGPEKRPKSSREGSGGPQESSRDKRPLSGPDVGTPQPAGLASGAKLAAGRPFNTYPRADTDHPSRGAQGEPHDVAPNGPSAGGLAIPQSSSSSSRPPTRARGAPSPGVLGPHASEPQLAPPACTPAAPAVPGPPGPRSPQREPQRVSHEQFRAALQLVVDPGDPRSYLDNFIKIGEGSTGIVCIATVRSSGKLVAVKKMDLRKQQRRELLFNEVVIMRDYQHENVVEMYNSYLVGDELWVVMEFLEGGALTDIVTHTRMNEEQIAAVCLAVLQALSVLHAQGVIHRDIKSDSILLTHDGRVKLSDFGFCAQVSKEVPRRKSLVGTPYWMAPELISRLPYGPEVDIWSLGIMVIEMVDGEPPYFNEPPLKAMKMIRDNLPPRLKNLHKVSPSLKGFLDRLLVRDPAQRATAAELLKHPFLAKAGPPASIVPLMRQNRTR

## C[C@@H]1CN(c2cc(-c3n[nH]c4ccc(OC5(C)CC5)cc34)ncn2)C[C@H](C)O1 [MLi-2]
[1]
  Ki: 750 nM
[2]
  inhibition: 27.1%
[3]
  inhibition: 8.14%
[4]
  inhibition: 2.15%
[5]
  inhibition: -3.35%
[6]
  inhibition: 5.78%
[7]
  inhibition: -4.32%
[8]
  inhibition: 1.06%
[9]
  inhibition: 8.11%
[10]
  inhibition: 4.75%
[11]
  inhibition: 4.49%
[12]
  inhibition: -7.34%
[13]
  inhibition: 4.9%
[14]
  inhibition: -1.63%
[15]
  inhibition: 2.24%
[16]
  inhibition: -1.69%
Caspase-3 (Homo sapiens)
  inhibition: 12%
Caspase-9 (Homo sapiens)
  inhibition: 5%
[17]
  inhibition: -4%
[18]
  inhibition: 2%
[19]
  inhibition: -7%

From ChEMBL document CHEMBL4507291 (2021)
